The values below come from publication PMC10111420, “Optimization of Host Cell-Compatible, Antimicrobial Peptides Effective against Biofilms and Clinical Isolates of Drug-Resistant Bacteria” (ACS Infectious Diseases, 2023).

Broadly, the EC50 is the concentration that produces a half-maximal response.

Converted amounts (≈) assume the structure as drawn. “And” between values parts separate entries of the source, which are not always exact repeats. Identical values can stand only once. Where a SMILES comes first, the peptide text is derived from it. [ ]: non-standard residue; d: D form. dAgb = N=C(N)NCC[C@@H](N)C(=O)O; βAla = NCCC(=O)O

Series [1] deals with human RBCs. The class given is cell-based. The method, then:
Human O+ erythrocytes were obtained from Interstate Blood Bank, Inc. Red blood cells were subjected to four or more cycles of centrifugation at 1000g with resuspension in fresh PBS. Following the final wash step, the supernatant was clear and colorless. RBC concentration was determined using a standard hemocytometer.
Peptide was serially diluted in PBS starting at a concentration of 100 μM. The final volume of peptide in each well was 50 μL. To each well, 50 μL of RBCs in PBS at 2 × 10^8 cells/mL was added. As a positive lysis control, 1% Triton was used. The mixtures were incubated at 37 °C for 1 h, after which they were centrifuged at 1000g for 5 min. After centrifugation, 10 μL of supernatant was transferred to 90 μL of DI H2O in a fresh 96-well plate. The absorbance of released hemoglobin at 410 nm was recorded, and the fractional hemolysis was calculated based on the 100 and 0% lysis controls. At least three independent experiments were performed. Results shown are averages.

A short description of series [2]: in vitro. It counts as cell-based, human. As to conditions: human. The method, then: (§1) The day before cytotoxicity experiments, the 10,000 cells/well were plated in a 96-well tissue-culture plate. […] To perform the cytotoxicity assay, media was removed from the wells and replaced with peptide solutions. […] The plate was read for SYTOX fluorescence every 5 min for an hour with an excitation wavelength of 504 nm and an emission wavelength of 523 nm. Percent cytotoxicity was calculated at 60 min using the 100 and 0% lysis controls. At least three independent experiments were averaged.

In series [3] the test system is K. pneumoniae subsp. pneumoniae (ATCC 13883). The method, then: (§2) All peptide variants were synthesized and purified as described previously.[5],[7] They were tested in broth dilution in the presence and absence of 1 × 10^9 human RBCs per mL, 20% of the concentration in human blood, against Escherichia coli, K. pneumoniae, and Staphylococcus aureus. […] The toxicity of the variants was tested by measuring hemolysis as well as cytotoxicity against human WI-38 fibroblast cells.
(§3) Subcultures, prepared by inoculating 25 mL of fresh tryptic soy broth (TSB) with 200 μL of an overnight culture, were grown to log phase (OD600 = 0.3–0.6), after which cell counts were determined by measuring the OD600 (1.0 = 5 × 10^8 CFU/mL for E. coli, 4 × 10^8 CFU/mL for K. pneumoniae, 4 × 10^8 CFU/mL for P. aeruginosa, 1.5 × 10^8 CFU/mL for S. aureus). Bacterial cells were diluted to appropriate concentrations in TSB. We used the following clinical bacterial isolates of Klebsiella pneumoniae in this study: Strains KP6, KP46, NDM-1, KP396, and KP398 have been previously described.[43] ST58 strains C2, C3, and I2 are also described.[41] […] MRSA, […] S. aureus strain, is SAP400, a USA400 strain of community-acquired MRSA. […] The second independent set of K. pneumoniae isolates are previously described.[20],[21]
(§4) The antibiotics were serially diluted by a factor of 2:3 horizontally across 96-well plates from Corning, 25 μL per well. One column was reserved for controls. For the assays performed in the presence of RBC, type O+ human RBCs at 0 or 2.5 × 10^9 cells/mL were added in 50 μL aliquots to all wells. Following a 30-min incubation, 50 μL of TSB, inoculated with 5 × 10^5 CFU/mL, was added to all wells, and plates were incubated overnight at 37 °C. Following overnight incubation at 37 °C, the OD600 was measured (values of less than 0.1 were considered sterilized). To assess bacterial growth in the assays with RBC, the OD600 was measured after a second-day inoculation with 10 μL of solution from the original plate added to 100 μL of sterile TSB followed by overnight incubation.
(§5) Experiments were repeated four to eight times independently, with pairs of replicate measurements on each 96-well plate. After overnight growth, optical densities were measured at 660 nm and the sterilized wells were identified by having O.D. < 0.08. Nonsterilized wells were nearly opaque with OD > 0.6. For each measurement, we recorded the largest dilution that sterilized the bacteria. Statistics are done on dilution numbers, rather than calculated concentrations, because only the former have normal distributions.

For series [4], the system named is WI-38 human fibroblast cells. Nature of the series: in vitro. It counts as cell-based. The method, then:
as §1

Series [5] relates to P. aeruginosa PAO1 (EYFP) pellicle biofilms. Briefly: Pellicle biofilm assay, viable cell enumeration. As to conditions: 2 μM, 48 h pellicle biofilm, 24 h challenge, dispersing and counting viable cells. It counts as cell-based, Pseudomonas aeruginosa.
Method: Here, we directly compare the antibiofilm activity of D-CONGA and D-CONGA-Q7 using a mature pellicle biofilm of P. aeruginosa.[22] […] To determine the susceptibility of pellicle biofilms to D-CONGA and D-CONGA-Q7, we cultured 2-day-old biofilms as described in the Methods section. The coverslip-adhered biofilms were exposed to challenge solution for 24 h prior to staining with SYTOX red and imaging with CLSM for EYFP, which indicates live cells, and for SYTOX Red which stains dead cells and extracellular DNA. […] The % cell survival was quantitated in two ways: (i) COMSTAT was used to compare biofilm biomass in CLSM images by estimating the biofilm biovolume, which is calculated as the overall volume/substratum area (μm^3/μm^2).[24],[25] […] (ii) The biofilms were dispersed mechanically for subsequent enumeration of viable cells such that % survival is expressed as the ratio (CFUuntreated biofilm/CFUtreated biofilm).
The susceptibility of biofilm-embedded P. aeruginosa cells to the antimicrobial peptides was studied as reported previously[23] using a P. aeruginosa PAO1 strain expressing enhanced yellow fluorescent protein (EYFP).[22] The EYFP-expressing P. aeruginosa strain was routinely grown in Pseudomonas Isolation (PI) media (20 g/L peptone, 0.3 g/L, MgCl2·6H2O, 10 g/L, K2SO4, 25 mg/L irgasan, and 20 mL/L glycerol, pH 7.0). […] Iron supplementation was carried out by addition of a small volume of filter-sterilized 10 mM (NH4)2Fe(SO4)2 (pH ∼ 2.0) solution.
In brief: Starter cultures (5 mL PI media supplemented with 10 μM Fe) were grown (14 h) from a single-colony shaking (220 rpm) at 37 °C. To grow the pellicle biofilms, starter cultures were diluted to OD600 = 0.001 in 4 mL of PI media supplemented with 20 μM Fe, placed in 35 × 10 mm Petri dishes, and incubated statically at 30 °C for 48 h. The pellicles were harvested using circular (1.5 cm diameter) glass coverslips by gently allowing the surface of a coverslip to contact the biofilm at the air–liquid interface. […]
The test system of series [6] is P. aeruginosa. The note with it: cited from earlier work.
For series [7], the system named is S. aureus (ATCC 25923). The method, then: as §2, §3, §4, §5

On to `CC(C)C[C@@H](NC(=O)CCNC(=O)[C@@H](CCCNC(=N)N)NC(=O)[C@@H](CCCNC(=N)N)NC(=O)[C@@H](C)NC(=O)[C@@H](Cc1c[nH]c2ccccc12)NC(=O)[C@@H](CCCNC(=N)N)NC(=O)[C@H](N)CCCNC(=N)N)C(=O)N[C@H](C)C(=O)N[C@H](Cc1ccccc1)C(=O)N[C@H](C)C(=O)N[C@H](Cc1ccccc1)C(=O)N[C@H](CCCNC(=N)N)C(=O)N[C@H](CCCNC(=N)N)C(N)=O` [D-CONGA-βA7] (H-[dR][dR][dW][dA][dR][dR][βAla][dL][dA][dF][dA][dF][dR][dR]-NH2; N-terminus and C-terminus assumed), for which the “Hemolysis at 100 μM (fractional hemolysis)” value in series [1] is listed as 0.02. The same compound came in with a half-maximal effective concentration (EC50) at 60 min in series [2] greater than 1000 µM.
On to `CC(C)C[C@@H](NC(=O)[C@@H](CCCNC(=N)N)NC(=O)[C@@H](CCCNC(=N)N)NC(=O)[C@@H](C)NC(=O)[C@@H](Cc1c[nH]c2ccccc12)NC(=O)[C@@H](CCCNC(=N)N)NC(=O)[C@H](N)CCCNC(=N)N)C(=O)N[C@H](C)C(=O)N[C@H](Cc1ccccc1)C(=O)N[C@H](C)C(=O)N[C@H](Cc1ccccc1)C(=O)N[C@H](CCCNC(=N)N)C(N)=O` [D-CONGA-ΔR13] (H-[dR][dR][dW][dA][dR][dR][dL][dA][dF][dA][dF][dR]-NH2; N-terminus and C-terminus assumed), for which the “MIC in Broth Dilution, K. Pneumoniae” value in series [3] worked out at 2.1 µM (≈ 3.37 µg/mL). Also, in series [1], the “Hemolysis at 100 μM (fractional hemolysis)” value came to 0.03. In series [4], this compound returned an EC50 of 300 µM.
Turning to colistin, the “Reduction of biofilm CFU” value in series [5] is recorded as “no detectable activity”. The “reported MIC” value in series [6] is 1 μg/mL and 0.79 μM.
As to `CC(C)C[C@@H](NC(=O)[C@@H](CCNC(=N)N)NC(=O)[C@@H](CCNC(=N)N)NC(=O)[C@@H](C)NC(=O)[C@@H](Cc1c[nH]c2ccccc12)NC(=O)[C@@H](CCCNC(=N)N)NC(=O)[C@H](N)CCCNC(=N)N)C(=O)N[C@H](C)C(=O)N[C@H](Cc1ccccc1)C(=O)N[C@H](C)C(=O)N[C@H](Cc1ccccc1)C(=O)N[C@H](CCCNC(=N)N)C(=O)N[C@H](CCCNC(=N)N)C(N)=O` [D-CONGA- NorR] (H-[dR][dR][dW][dA][dAgb][dAgb][dL][dA][dF][dA][dF][dR][dR]-NH2; N-terminus and C-terminus assumed), the “MIC in Broth Dilution, S. Aureus” value in series [7] was 17 µM (≈ 29.5 µg/mL).
For the compound `CC(C)C[C@@H](NC(=O)[C@@H](CCCNC(=N)N)NC(=O)[C@H](CCCNC(=N)N)NC(=O)[C@@H](C)NC(=O)[C@@H](Cc1c[nH]c2ccccc12)NC(=O)[C@@H](CCCNC(=N)N)NC(=O)[C@H](N)CCCNC(=N)N)C(=O)N[C@H](C)C(=O)N[C@H](Cc1ccccc1)C(=O)N[C@@H](C)C(=O)N[C@H](Cc1ccccc1)C(=O)N[C@H](CCCNC(=N)N)C(=O)N[C@H](CCCNC(=N)N)C(N)=O` [D-CONGA-L-R5,A10] (H-[dR][dR][dW][dA]R[dR][dL][dA][dF]A[dF][dR][dR]-NH2; N-terminus and C-terminus assumed), the “Hemolysis at 100 μM (fractional hemolysis)” value in series [1] is 0.04. In addition, in series [2], the EC50 at 60 min was greater than 1000 µM.
